Measured values taken from patent US20250295143A1, “USE OF ALPHA LIPOIC ACID AS A FEED ADDITIVE FOR AQUATIC ANIMALS” (DSM IP ASSETS B.V., priority 2018, published 2025).

Experiments:
Salmon Alfa Virus (SAV) = assay: Mortality in Atlantic salmon fry following SAV challenge by cohabitation (Pancreas Disease); assay type: in vivo; conditions: for survival compared to control diet fed fish / Relative Percent Survival (RPS): Study 2, SAV challenge; for end mortality compared to control: Study 3, all three SAV challenge trials
Description: (§1) The first study evaluated dietary alpha-lipoic acid (LA) at 500 mg/kg compared to control basal diet fed fish. Pre-feeding experimental diets for ˜5 weeks, growing from ˜0.2 g to ˜0.5 g in 4 replicate tanks per diet. Water temperature at 12° C.±1° C. Min. 30 fish per diet (tank). Disease challenge by cohabitation with fish infected with Salmon Alfa Virus (SAV).
(§2) This was intended to transmit the infection to the test groups leading to clinical Pancreas Disease (PD). The challenge lasted for 9.5 weeks (˜2 g), mortality recorded daily.
The second study evaluated dietary alpha-lipoic acid at 3 doses 125, 250 and 500 mg/kg compared to control basal diet fed fish for resistance to virus disease (PD). The experiment was carried out as described for the first study.
In this study three separate virus challenge trials evaluated dietary alpha-lipoic acid at 3 doses 250, 500 and 1000 mg/kg compared to control basal diet fed fish for resistance to virus disease (PD). The experiment was carried out as described for the first study.

IPN [1] = assay: Mortality in Atlantic salmon following IPN challenge; assay type: in vivo; conditions: A. salmon
Description: as §1, §2
The fourth study evaluated dietary alpha-lipoic acid at 3 doses 500, 750 and 1000 mg/kg compared to control basal diet fed fish for resistance to virus disease (IPN). The experiment was carried out as described for the first study.

IPN [2] = assay: Performance (growth reduction) of Atlantic salmon following IPN challenge; assay type: in vivo
Description: This study evaluated dietary alpha-lipoic acid at 3 doses 500, 750 and 1000 mg/kg compared to control basal diet fed fish for performance after disease (IPN) challenge in atlantic salmon and was carried out in succession of the fifth study by weighting the fish and comparing the challenged LA and control fed fish with the unchallenged control fed fish.

phagocytes = assay: Oxidative burst of phagocytes from rainbow trout fed LA; assay type: cell-based; conditions: rainbow trout fed 125, 250 and 500 mg/kg for 4 weeks; any treatment group vs control
Description: (§3) Rainbow trout were fed for 4 weeks with graded levels of LA (125, 250 and 500 mg/kg) compared to basal control diet fed fish. A range of functional immune assays of tissues/cells obtained at the end of the feeding period were conducted to investigate the possible mode of action observed in the disease challenge studies.
The capacity of Oxidative burst of phagocytes was assayed to assess anti-oxidation or pro-oxidation activity, as widely reported for use of LA (Kutter et al., 2014).

lymphocytes = assay: Apoptosis of lymphocytes from rainbow trout fed LA; assay type: cell-based
Description: as §3
The apoptosis pathway (programmed cell death) was investigated by assaying the ability of lymphocytes to prevent apoptosis occurring following incubation with Campto, a chemical stimulator of apoptosis. […] This level of reduction in apoptosis is quite remarkable.

[3] = Feed conversion ratio (FCR) in rainbow trout; assay type: in vivo; conditions: for (Cumulative) Feed conversion ratio (FCR), Feed as fed basis (kg)/weight gain (kg), Mean: rainbow trout
Description: This study evaluated dietary alpha-lipoic acid at 3 doses 250, 500 and 1000 mg/kg compared to control basal diet fed fish for feed conversion ratio. Rainbow trout with an initial weight around 50 g were fed for ˜6 weeks with graded levels of LA compared to basal control diet fed fish in 4 replicate tanks per diet with 50 fish per tank. The fish were fed automatically and daily with an excess of experimental diets with regard to feeding instructions for control basal diet and weighted every two weeks. Excess feed was removed daily.

Noda Virus (VNN) = assay: Mortality in Sea Bass fry following VNN (Noda virus) challenge by cohabitation; assay type: in vivo
Description: The seventh study evaluated dietary alpha-lipoic acid (LA) at 250, 500 and 750 mg/kg compared to control basal diet fed fish in Sea Bass fry. Pre-feeding experimental diets for 5-6 weeks, growing from ˜0.7 g to ˜1.4 g. Water temperature at 25° C. 133 fish per diet (tank). Disease challenge by cohabitation with fish infected with Noda Virus (VNN). This was intended to transmit the infection to the test groups. Mortality was recorded daily.

[4] = system: white spot syndrome virus (WSSV); assay: Mortality in shrimp following WSSV challenge; assay type: in vivo
Description: The fourth study evaluated dietary alpha-lipoic acid at 650 mg/kg compared to control basal diet fed shrimp for resistance to white spot syndrome virus disease (WSSV). The experiment was carried out under standard conditions for shrimp. Pre-feeding experimental diets for ˜4 weeks. Mortality was recorded daily.

O=C(O)CCCCC1CCSS1 (stereo not drawn) [alpha-lipoic acid]
relative percent survival (RPS) compared to control diet (Salmon Alfa Virus (SAV); Study 1, 500 mg/kg feed, A. salmon fry, SAV challenge 9.5 weeks): 63% | survival compared to control diet fed fish (Salmon Alfa Virus (SAV); 125 mg/kg): no observed effect | survival compared to control diet fed fish (Salmon Alfa Virus (SAV); 250 mg/kg): tendency for improved survival but this was not statistically significant | Relative Percent Survival (RPS) (Salmon Alfa Virus (SAV); 125 ppm in diet vs control, A. salmon fry): −17% | Relative Percent Survival (RPS) (Salmon Alfa Virus (SAV); 250 ppm in diet vs control, A. salmon fry): 8% | Relative Percent Survival (RPS) (Salmon Alfa Virus (SAV); 500 ppm in diet vs control, A. salmon fry): 34% | Relative Percent Survival (RPS) (Salmon Alfa Virus (SAV); 500 ppm in diet vs control, A. salmon fry, listed as LA): 34% | end mortality compared to control (Salmon Alfa Virus (SAV); high dose 1000 mg/kg): significantly reduced | end mortality compared to control (Salmon Alfa Virus (SAV); medium dose 500 mg/kg): significantly reduced | RPS (IPN [1]; 500 ppm in diet vs control): 7.1% | RPS (IPN [1]; 500 ppm in diet vs control, listed as LA): 7% | Mean Survival (IPN [1]; 500 ppm in diet): 62.0% | Mean mortality (IPN [1]; 500 ppm in diet): 38.0% | RPS (IPN [1]; 750 ppm in diet vs control): 27.6% | RPS (IPN [1]; 750 ppm in diet vs control, listed as LA): 28% | Mean Survival (IPN [1]; 750 ppm in diet): 70.4% | Mean mortality (IPN [1]; 750 ppm in diet): 29.6% | RPS (IPN [1]; 1000 ppm in diet vs control): −1.0% | RPS (IPN [1]; 1000 ppm in diet vs control, listed as LA): −1% | Mean Survival (IPN [1]; 1000 ppm in diet): 58.7% | Mean mortality (IPN [1]; 1000 ppm in diet): 41.3% | performance compared to challenged control diet fed fish (IPN [2]; 500 mg/kg): performed better | performance compared to challenged control diet fed fish (IPN [2]; 750 mg/kg): significantly better performance | performance compared to challenged control diet fed fish (IPN [2]; 1000 mg/kg): did not perform significantly better | extracellular or intracellular oxidative burst of phagocytes (phagocytes): no significant difference | basal apoptosis activity of lymphocytes (lymphocytes; no Campto used, LA treatment groups, not significant): trend for lower basal apoptosis activity | apoptotic cells (lymphocytes) after incubation with Campto (lymphocytes; rainbow trout fed 500 mg/kg for 4 weeks): significant reduction | reduction of apoptotic cells (lymphocytes) after incubation with Campto (lymphocytes; rainbow trout fed graded levels 125, 250 and 500 mg/kg for 4 weeks): clear dose response | (Cumulative) Feed conversion ratio (FCR), Feed as fed basis (kg)/weight gain (kg), Mean ([3]; AL 250, period 0-15 days): 0.65 | (Cumulative) Feed conversion ratio (FCR), Feed as fed basis (kg)/weight gain (kg), Mean ([3]; AL 250, period 0-30 days): 0.67 | (Cumulative) Feed conversion ratio (FCR), Feed as fed basis (kg)/weight gain (kg), Mean ([3]; AL 250, period 0-44 days): 0.67 | (Cumulative) Feed conversion ratio (FCR), Feed as fed basis (kg)/weight gain (kg), Mean ([3]; AL 500, period 0-15 days): 0.66 | (Cumulative) Feed conversion ratio (FCR), Feed as fed basis (kg)/weight gain (kg), Mean ([3]; AL 500, period 0-30 days): 0.67 | (Cumulative) Feed conversion ratio (FCR), Feed as fed basis (kg)/weight gain (kg), Mean ([3]; AL 500, period 0-44 days): 0.68 | (Cumulative) Feed conversion ratio (FCR), Feed as fed basis (kg)/weight gain (kg), Mean ([3]; AL 1000, period 0-15 days): 0.65 | (Cumulative) Feed conversion ratio (FCR), Feed as fed basis (kg)/weight gain (kg), Mean ([3]; AL 1000, period 0-30 days): 0.67 | (Cumulative) Feed conversion ratio (FCR), Feed as fed basis (kg)/weight gain (kg), Mean ([3]; AL 1000, period 0-44 days): 0.68 | feed conversion ratios compared to control diet fed fish ([3]; rainbow trout fed 250, 500 and 1000 mg/kg for ~6 weeks): improved | Mean Survival (Noda Virus (VNN); 250 ppm in diet): 84.2% | Mean mortality (Noda Virus (VNN); 250 ppm in diet): 15.8% | RPS (Noda Virus (VNN); 250 ppm in diet vs control): 59.6% | RPS (Noda Virus (VNN); 250 ppm in diet vs control, listed as lipoic acid): 60% | Mean Survival (Noda Virus (VNN); 500 ppm in diet): 86.7% | Mean mortality (Noda Virus (VNN); 500 ppm in diet): 13.3% | RPS (Noda Virus (VNN); 500 ppm in diet vs control): 66.0% | RPS (Noda Virus (VNN); 500 ppm in diet vs control, listed as lipoic acid): 66% | Mean Survival (Noda Virus (VNN); 750 ppm in diet): 78.3% | Mean mortality (Noda Virus (VNN); 750 ppm in diet): 21.7% | RPS (Noda Virus (VNN); 750 ppm in diet vs control): 44.7% | RPS (Noda Virus (VNN); 750 ppm in diet vs control, listed as lipoic acid): 45% | Mean Survival ([4]; 650 ppm in diet): 30.0% | Mean mortality ([4]; 650 ppm in diet): 70.0% | RPS ([4]; 650 ppm in diet vs control): 8.7%
